Measured values published in article PMC10008561 (Nature Communications, 2023).
Where “and” joins values, the source holds several entries; their conditions need not be identical. Equal entries are not always repeated.

Experiments:
Assay in all cases: cell-based
[1] = biological target: T1, human KOR (GoA) (Homo sapiens, UniProt P41145, Y139L)
T1 construct: expressed in transfected cells; host or cells: HEK293T

[2] = biological target: T2, human KOR (GoA) (Homo sapiens, UniProt P41145, N141A)
T2 construct: expressed in transfected cells; host or cells: HEK293T

[3] = biological target: T3, human KOR (GoA) (Homo sapiens, UniProt P41145, Y320L); conditions: HEK-293T
T3 construct: expressed in transfected cells; host or cells: HEK293T

[4] = biological target: T4, human KOR (Gustducin) (Homo sapiens, UniProt P41145, N326A); conditions: HEK-293T
T4 construct: expressed in transfected cells; host or cells: HEK293T

[5] = biological target: T5, human KOR (Gustducin) (Homo sapiens, UniProt P41145, F114L); conditions: HEK-293T
T5 construct: expressed in transfected cells; host or cells: HEK293T

[6] = biological target: T6, human KOR (Gustducin) (Homo sapiens, UniProt P41145, K200A); conditions: HEK-293T
T6 construct: expressed in transfected cells; host or cells: HEK293T

[7] = biological target: T7, human KOR (Gustducin) (Homo sapiens, UniProt P41145, N322A); conditions: HEK-293T
T7 construct: expressed in transfected cells; host or cells: HEK293T

[8] = biological target: T8, human KOR (Gustducin) (Homo sapiens, UniProt P41145, R170A); conditions: HEK-293T
T8 construct: expressed in transfected cells; host or cells: HEK293T

[9] = biological target: T9, human KOR (Gustducin) (Homo sapiens, UniProt P41145)
T9 construct: expressed in transfected cells; host or cells: HEK293T

[10] = biological target: T10, human KOR (Gustducin) (Homo sapiens, UniProt P41145, Q115N); conditions: HEK-293T
T10 construct: expressed in transfected cells; host or cells: HEK293T

[11] = biological target: T11, human KOR (Gustducin) (Homo sapiens, UniProt P41145, Y320L); conditions: HEK-293T
T11 construct: expressed in transfected cells; host or cells: HEK293T

[12] = biological target: T12, human KOR (Gustducin) (Homo sapiens, UniProt P41145, Y139L); conditions: HEK-293T
T12 construct: expressed in transfected cells; host or cells: HEK293T

[13] = biological target: T13, human KOR (Gustducin) (Homo sapiens, UniProt P41145, R271A); conditions: HEK-293T
T13 construct: expressed in transfected cells; host or cells: HEK293T

[14] = biological target: T14, human KOR (Gustducin) (Homo sapiens, UniProt P41145, D105A); conditions: HEK-293T
T14 construct: expressed in transfected cells; host or cells: HEK293T

[15] = biological target: T15, human KOR (Gustducin) (Homo sapiens, UniProt P41145, D155A); conditions: HEK-293T
T15 construct: expressed in transfected cells; host or cells: HEK293T

[16] = biological target: T16, human KOR (Gustducin) (Homo sapiens, UniProt P41145, R257A); conditions: HEK-293T
T16 construct: expressed in transfected cells; host or cells: HEK293T

[17] = biological target: T17, human KOR (Gustducin) (Homo sapiens, UniProt P41145, F283A); conditions: HEK-293T
T17 construct: expressed in transfected cells; host or cells: HEK293T

[18] = biological target: T18, human KOR (Gustducin) (Homo sapiens, UniProt P41145, N141A); conditions: HEK-293T
T18 construct: expressed in transfected cells; host or cells: HEK293T

[19] = biological target: T19, human KOR (Gustducin) (Homo sapiens, UniProt P41145, T94V); conditions: HEK-293T
T19 construct: expressed in transfected cells; host or cells: HEK293T

[20] = biological target: T20, human KOR (Gustducin) (Homo sapiens, UniProt P41145, E297A); conditions: HEK-293T
T20 construct: expressed in transfected cells; host or cells: HEK293T

[21] = biological target: T21, human KOR (Gustducin) (Homo sapiens, UniProt P41145, G319L); conditions: HEK-293T
T21 construct: expressed in transfected cells; host or cells: HEK293T

[22] = biological target: T22, human KOR (Gustducin) (Homo sapiens, UniProt P41145, K227A); conditions: HEK-293T
T22 construct: expressed in transfected cells; host or cells: HEK293T

[23] = biological target: T23, human KOR (Gustducin) (Homo sapiens, UniProt P41145, R274A); conditions: HEK-293T
T23 construct: expressed in transfected cells; host or cells: HEK293T

[24] = biological target: T24, human KOR (Gustducin) (Homo sapiens, UniProt P41145, D266A); conditions: HEK-293T
T24 construct: expressed in transfected cells; host or cells: HEK293T

[25] = biological target: T25, human KOR (Gustducin) (Homo sapiens, UniProt P41145, L253A); conditions: HEK-293T
T25 construct: expressed in transfected cells; host or cells: HEK293T

[26] = biological target: T26, human KOR (Gustducin) (Homo sapiens, UniProt P41145, D334A); conditions: HEK-293T
T26 construct: expressed in transfected cells; host or cells: HEK293T

[27] = biological target: T27, human KOR (Homo sapiens, UniProt P41145, F114L); conditions: HTLA
T27 construct: expressed in transfected cells; host or cells: HEK 293T (ATCC, CRL-3216)

[28] = biological target: T28, human KOR (Homo sapiens, UniProt P41145, W287A); conditions: HTLA
T28 construct: expressed in transfected cells; host or cells: HEK 293T (ATCC, CRL-3216)

[29] = biological target: T29, human KOR (Homo sapiens, UniProt P41145, G319L); conditions: HTLA
T29 construct: expressed in transfected cells; host or cells: HEK 293T (ATCC, CRL-3216)

[30] = biological target: T30, human KOR (Homo sapiens, UniProt P41145, Y320L); conditions: HTLA
T30 construct: expressed in transfected cells; host or cells: HEK 293T (ATCC, CRL-3216)

[31] = biological target: T31, human KOR (Homo sapiens, UniProt P41145, W124L); conditions: HTLA
T31 construct: expressed in transfected cells; host or cells: HEK 293T (ATCC, CRL-3216)

[32] = biological target: T32, human KOR (Homo sapiens, UniProt P41145, Q115N); conditions: HTLA
T32 construct: expressed in transfected cells; host or cells: HEK 293T (ATCC, CRL-3216)

[33] = biological target: T33, human KOR (Homo sapiens, UniProt P41145, V134A); conditions: HTLA
T33 construct: expressed in transfected cells; host or cells: HEK 293T (ATCC, CRL-3216)

[34] = biological target: T34, human KOR (Homo sapiens, UniProt P41145, K227A); conditions: HTLA
T34 construct: expressed in transfected cells; host or cells: HEK 293T (ATCC, CRL-3216)
T34 sequence (P41145 whole entry K227A): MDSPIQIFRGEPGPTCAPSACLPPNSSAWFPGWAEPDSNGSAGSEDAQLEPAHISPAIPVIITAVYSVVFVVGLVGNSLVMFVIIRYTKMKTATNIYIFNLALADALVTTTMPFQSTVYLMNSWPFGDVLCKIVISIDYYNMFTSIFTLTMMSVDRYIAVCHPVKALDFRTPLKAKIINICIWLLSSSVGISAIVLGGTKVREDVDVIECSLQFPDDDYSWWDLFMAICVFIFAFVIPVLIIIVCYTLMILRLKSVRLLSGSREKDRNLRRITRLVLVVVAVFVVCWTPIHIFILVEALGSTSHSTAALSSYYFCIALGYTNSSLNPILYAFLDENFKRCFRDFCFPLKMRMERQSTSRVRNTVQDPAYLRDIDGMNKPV

T31 sequence (P41145 whole entry W124L): as the sequence (P41145 whole entry K227A) above, with W124L, A227K counted along it
T30 sequence (P41145 whole entry Y320L): as the sequence (P41145 whole entry K227A) above, with A227K, Y320L counted along it
T33 sequence (P41145 whole entry V134A): as the sequence (P41145 whole entry K227A) above, with V134A, A227K counted along it
T27 sequence (P41145 whole entry F114L): as the sequence (P41145 whole entry K227A) above, with F114L, A227K counted along it
T9 sequence (P41145 whole entry): as the sequence (P41145 whole entry K227A) above, with A227K counted along it
T2 sequence (P41145 whole entry N141A): as the sequence (P41145 whole entry K227A) above, with N141A, A227K counted along it
T29 sequence (P41145 whole entry G319L): as the sequence (P41145 whole entry K227A) above, with A227K, G319L counted along it
T26 sequence (P41145 whole entry D334A): as the sequence (P41145 whole entry K227A) above, with A227K, D334A counted along it
T7 sequence (P41145 whole entry N322A): as the sequence (P41145 whole entry K227A) above, with A227K, N322A counted along it
T18 sequence (P41145 whole entry N141A): as the sequence (P41145 whole entry K227A) above, with N141A, A227K counted along it
T22 sequence (P41145 whole entry K227A): as the sequence (P41145 whole entry K227A) above
T4 sequence (P41145 whole entry N326A): as the sequence (P41145 whole entry K227A) above, with A227K, N326A counted along it
T8 sequence (P41145 whole entry R170A): as the sequence (P41145 whole entry K227A) above, with R170A, A227K counted along it
T14 sequence (P41145 whole entry D105A): as the sequence (P41145 whole entry K227A) above, with D105A, A227K counted along it
T10 sequence (P41145 whole entry Q115N): as the sequence (P41145 whole entry K227A) above, with Q115N, A227K counted along it
T32 sequence (P41145 whole entry Q115N): as the sequence (P41145 whole entry K227A) above, with Q115N, A227K counted along it
T28 sequence (P41145 whole entry W287A): as the sequence (P41145 whole entry K227A) above, with A227K, W287A counted along it
T6 sequence (P41145 whole entry K200A): as the sequence (P41145 whole entry K227A) above, with K200A, A227K counted along it
T24 sequence (P41145 whole entry D266A): as the sequence (P41145 whole entry K227A) above, with A227K, D266A counted along it
T19 sequence (P41145 whole entry T94V): as the sequence (P41145 whole entry K227A) above, with T94V, A227K counted along it
T3 sequence (P41145 whole entry Y320L): as the sequence (P41145 whole entry K227A) above, with A227K, Y320L counted along it
T11 sequence (P41145 whole entry Y320L): as the sequence (P41145 whole entry K227A) above, with A227K, Y320L counted along it
T25 sequence (P41145 whole entry L253A): as the sequence (P41145 whole entry K227A) above, with A227K, L253A counted along it
T13 sequence (P41145 whole entry R271A): as the sequence (P41145 whole entry K227A) above, with A227K, R271A counted along it
T21 sequence (P41145 whole entry G319L): as the sequence (P41145 whole entry K227A) above, with A227K, G319L counted along it
T17 sequence (P41145 whole entry F283A): as the sequence (P41145 whole entry K227A) above, with A227K, F283A counted along it
T23 sequence (P41145 whole entry R274A): as the sequence (P41145 whole entry K227A) above, with A227K, R274A counted along it
T1 sequence (P41145 whole entry Y139L): as the sequence (P41145 whole entry K227A) above, with Y139L, A227K counted along it
T12 sequence (P41145 whole entry Y139L): as the sequence (P41145 whole entry K227A) above, with Y139L, A227K counted along it
T16 sequence (P41145 whole entry R257A): as the sequence (P41145 whole entry K227A) above, with A227K, R257A counted along it
T20 sequence (P41145 whole entry E297A): as the sequence (P41145 whole entry K227A) above, with A227K, E297A counted along it
T15 sequence (P41145 whole entry D155A): as the sequence (P41145 whole entry K227A) above, with D155A, A227K counted along it
T5 sequence (P41145 whole entry F114L): as the sequence (P41145 whole entry K227A) above, with F114L, A227K counted along it

CN(C(=O)/C=C/c1ccoc1)[C@@H]1CC[C@@]2(O)[C@H]3Cc4ccc(O)c5c4[C@@]2(CCN3CC2CC2)[C@H]1O5 [Nalfurafine, nalfurafine]
FC vs wild type [1]: 3 | FC vs wild type [2]: 9 | Emax ([2]; HEK-293T): 101% | Emax [3]: 75.8% | Emax [4]: 49.2% | Emax [5]: 60.6% | Emax [6]: 75.7% | Emax [7]: 96.6% | Emax [8]: 77.5% | Emax% [9]: 65% | Emax ([9]; HEK-293T): 65.6% | Emax [10]: 62.9% | Emax [11]: 80% | Emax [12]: 55.3% | Emax [13]: 56.9% | Emax [14]: 70.2% | Emax [15]: 91.8% | Emax [16]: 53.8% | Emax [17]: 100% | Emax [18]: 79.1% | Emax [19]: 73.6% | Emax [20]: 73.1% | Emax [21]: 80.9% | Emax [22]: 85.5% | Emax [23]: 82% | Emax [24]: 62.6% | Emax [25]: 61.4% | Emax [26]: 100% | Emax [27]: 17 ± 3% | activation at 1 µM ([27]; read-out: Tango response): 16.2% | activation at 10 µM ([27]; read-out: Tango response): 15.9% | activation at […] ([27]; read-out: Tango response): 30.3% | Emax [28]: 85 ± 7% | Emax [29]: 2.6 ± 1.2% | activation at 1 µM ([29]; read-out: Tango response): 4.03% | Emax [30]: 66 ± 7% | activation at 0.1 µM ([30]; read-out: Tango response): 43.6% | activation at 1 µM ([30]; read-out: Tango response): 51.8% | activation at 10 µM ([30]; read-out: Tango response): 79.2% | activation at […] ([30]; read-out: Tango response): 53% and 72.8% | Emax [31]: 26 ± 4% | activation at 1 µM ([31]; read-out: Tango response): 19.6% | activation at […] ([31]; read-out: Tango response): 21% and 25.5% | Emax [32]: 98 ± 3% | Emax [33]: 76 ± 6% | activation at 10 µM ([33]; read-out: Tango response): 71.1% | activation at […] ([33]; read-out: Tango response): 50.8% and 73.3% | Emax [34]: 89 ± 3%
